Data on three compounds can be found in US9145411B2, “Substituted amino-pyrimidine derivatives” (Asana Biosciences, LLC, priority 2012, dated 2015).

Assay [1] concerns the target PI3 kinase isoform δ (Homo sapiens, UniProt O00329). In words: PI3 Kinase TR-FRET assay, isoform δ. The format is biochemical. The note with it: read-out: inhibition of PI3 kinase isoform δ, IC50. The protocol: (§1) The ability of compounds of the invention to inhibit PI3K activity was determined in a homogeneous TR-FRET assay using a PI3K assay kit (Millipore, USA; cat #33-016) according to manufacturer's instructions. PI3-Kinases (isoforms α, β, γ and δ) catalyze the phosphorylation of phosphatidylinositol, PIP2 to PIP3 in the presence of ATP and Mg^2+. The PIP3 product is detected by displacement of biotin-PIP3 from an energy transfer complex consisting of Europium labeled anti-GST monoclonal antibody, a GST-tagged PH domain, biotinylated PIP3 and Streptavidin-APC. Excitation of Europium in the complex results in an energy transfer to the APC and a fluorescence emission at 665 nm. The PIP3 product displaces biotin-PIP3 from the complex resulting in a loss of energy transfer and thus a decrease in signal.
(§2) To test for the ability of compounds to inhibit the activity of PI3Kα (wild-type), exemplary compounds of formula (I) were dissolved in DMSO and directly distributed into 384-well plates at a volume of 0.5 μL. 14.5 μL of P110/P85α/PIP2 mixture in buffer (obtained from the Millipore kit) containing MgCl2 (40 mM) and DTT (5 mM) was added to compound wells and incubated for 60 minutes at room temperature. P110/P85α was expressed in SF9 insect cells and purified nickel column extraction. Five ng of wild-type P110/P85α was used in the assay. The kinase reaction was started by the addition of ATP. The assay concentrations of both PIP2 and ATP were 10 μM. The reaction mixture was incubated for 30 minutes at room temperature and was terminated by the addition of stop mix and detection mix. Fluorescence was measured at 615 and 665 nm upon excitation at 340 nm in a Victor™ V5 fluorometer (Perkin Elmer, USA). The fluorescence emission ratio at 665 to 615 nm, proportional to the kinase activity, was plotted against the compound concentration to generate dose-response curves and IC50 values were determined using GraphPad Prism® 5 software.
The activity of PI3 kinase isoforms β, γ and δ were assayed in a similar manner to the assay protocol described above for PI3Kα, by substituting the appropriate p110/p85 isoform for the p110α/p85α. Compounds of formula (I) caused inhibition of PI3 kinase isoforms β, γ and δ as determined by these assays. For example, the compounds of Examples 3 and 21 each caused inhibition of PI3 kinase isoform β with IC50 values<500 nM. The compounds of Examples 3, 7, 21, 47, 48 and 49 each caused inhibition of PI3 kinase isoform γ with IC50 values<500 nM. The compounds of Example 3, 7, 47, 48, and 49 caused inhibition of PI3 kinase isoform δ with IC50 values<1 μM.
In general terms: In TR-FRET formats the signal depends on donor and acceptor labels being close together.

Assay [2] deals with PI3Kα mutation E545K (Homo sapiens, UniProt P42336, E545K). The assay is described as follows: PI3 Kinase TR-FRET assay, PI3Kα mutation E545K. The format is biochemical. The following applies: read-out: inhibition of PI3Kα mutation E545K, IC50. The protocol: as §1, §2
The activity of PI3Kα mutations H1047R and E545K were assayed in a similar manner to the assay protocol described above for PI3Kα (wild type). The compounds of formula (I) caused inhibition of PI3Kα mutations H1047R (a mutation associated with breast and gastric cancers) and E545K (a mutation associated with colorectal tumors, glioblastomas, gastric cancers, breast cancers, and lung cancers). For example, each of the compounds of Example 3, 7, 21, 47, 48 and 49 caused inhibition of each of the PI3Kα mutations H1047R and E545K with IC50 values<50 nM.

The subject of assay [3] is pS6RP. The assay is described as follows: In vivo PK/PD study, U87MG tumor xenograft, pS6RP. The note with it: U87MG tumor-bearing xenograft mice, 50 mg/kg po. The protocol: PC3 cells are cultured at 37° C. in a 5% CO2 incubator using Hams F12 K medium. Ten million (10^7) cells are injected subcutaneously to the right flank region of athymic male mice (Harlan, age: 6-7 weeks, weight: about 20 g). Tumor bearing mice are randomized when the tumor volume reaches about 250 mm^3 and three mice are used per each time point. Test compounds of formula (I) are typically formulated in 40% HPCD in 1×PBS, pH 7.4 or in 10% Ethanol/40% Solutol/50% 50 mM aq. methanesulfonic acid and dosed orally at 50 mg/kg single dose (dose volume—10 mL/kg). Plasma and tumor samples are collected at 0 (vehicle control animals), 1, 4 and 24 hours post dosing. Blood is drawn (retro orbital) to a tube containing 0.2% EDTA for plasma collection. […] Tumor and plasma drug concentrations are measured for PK analysis using LC-MS.
Snap frozen tumor samples are pulverized in a mortar (Belart) containing liquid nitrogen and tumor powder is stored at −80° C. until analysis. […] The detection for pAKT is based on chemiluminescence and pS6RP is based on absorbance. […]
In vivo pharmacokinetic/pharmacodynamic (PK/PD) studies were carried out in a similar manner using U87MG tumor cells (glioma cancer cell line with a PTEN null mutation) and the corresponding tumor-bearing xenograft mice, and compounds of the invention were determined to be active in this assay. […]

PI3Kα mutation E545K, sequence (P42336 whole entry E545K): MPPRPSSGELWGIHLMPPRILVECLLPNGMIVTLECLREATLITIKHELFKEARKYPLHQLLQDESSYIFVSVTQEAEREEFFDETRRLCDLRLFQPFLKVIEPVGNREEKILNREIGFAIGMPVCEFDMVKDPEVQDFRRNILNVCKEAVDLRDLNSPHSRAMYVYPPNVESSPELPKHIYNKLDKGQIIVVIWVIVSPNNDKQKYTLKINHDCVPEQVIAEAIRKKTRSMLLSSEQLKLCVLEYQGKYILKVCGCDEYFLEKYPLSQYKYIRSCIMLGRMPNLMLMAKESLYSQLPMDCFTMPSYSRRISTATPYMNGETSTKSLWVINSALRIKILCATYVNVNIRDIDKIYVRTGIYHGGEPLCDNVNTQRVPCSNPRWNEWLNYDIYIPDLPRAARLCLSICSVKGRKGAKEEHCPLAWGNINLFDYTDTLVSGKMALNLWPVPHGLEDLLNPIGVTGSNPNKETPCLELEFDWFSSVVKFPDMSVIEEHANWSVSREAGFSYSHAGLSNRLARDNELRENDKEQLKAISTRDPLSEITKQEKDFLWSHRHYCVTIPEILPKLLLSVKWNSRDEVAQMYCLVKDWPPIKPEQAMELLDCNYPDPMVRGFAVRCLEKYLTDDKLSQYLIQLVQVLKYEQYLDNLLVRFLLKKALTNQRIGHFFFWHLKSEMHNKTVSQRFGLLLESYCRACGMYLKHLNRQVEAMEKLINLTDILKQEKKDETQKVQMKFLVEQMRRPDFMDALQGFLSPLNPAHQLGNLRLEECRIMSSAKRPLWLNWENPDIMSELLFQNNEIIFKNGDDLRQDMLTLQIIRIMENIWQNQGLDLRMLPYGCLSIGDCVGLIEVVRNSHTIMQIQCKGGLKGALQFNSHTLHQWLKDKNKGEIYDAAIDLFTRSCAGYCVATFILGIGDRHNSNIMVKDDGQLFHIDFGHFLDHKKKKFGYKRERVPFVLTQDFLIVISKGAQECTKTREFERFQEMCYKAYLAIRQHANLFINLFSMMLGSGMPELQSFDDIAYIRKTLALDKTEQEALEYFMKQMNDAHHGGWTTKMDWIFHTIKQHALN
PI3Kα mutation E545K, sequence (P27986 whole entry partner): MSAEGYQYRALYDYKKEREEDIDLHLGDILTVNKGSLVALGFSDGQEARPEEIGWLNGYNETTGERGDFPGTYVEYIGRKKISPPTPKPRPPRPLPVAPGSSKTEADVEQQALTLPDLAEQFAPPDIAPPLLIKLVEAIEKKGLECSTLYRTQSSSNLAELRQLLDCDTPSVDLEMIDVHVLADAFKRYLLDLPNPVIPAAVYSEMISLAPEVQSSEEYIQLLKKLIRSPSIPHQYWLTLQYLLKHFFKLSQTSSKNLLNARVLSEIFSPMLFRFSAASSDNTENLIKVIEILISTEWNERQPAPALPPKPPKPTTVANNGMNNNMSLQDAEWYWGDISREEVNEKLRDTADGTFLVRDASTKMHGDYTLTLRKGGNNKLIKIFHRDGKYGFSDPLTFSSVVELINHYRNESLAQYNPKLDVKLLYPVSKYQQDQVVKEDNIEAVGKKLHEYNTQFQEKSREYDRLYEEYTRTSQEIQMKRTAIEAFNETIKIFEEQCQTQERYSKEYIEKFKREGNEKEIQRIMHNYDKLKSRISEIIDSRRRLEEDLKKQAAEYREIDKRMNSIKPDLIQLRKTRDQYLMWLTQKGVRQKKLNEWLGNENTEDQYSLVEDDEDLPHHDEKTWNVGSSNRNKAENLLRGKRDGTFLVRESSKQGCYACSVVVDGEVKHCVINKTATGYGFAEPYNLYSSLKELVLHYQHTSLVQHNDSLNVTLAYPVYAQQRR
PI3 kinase isoform δ, sequence (O00329 whole entry, the tested form may be a part, canonical isoform): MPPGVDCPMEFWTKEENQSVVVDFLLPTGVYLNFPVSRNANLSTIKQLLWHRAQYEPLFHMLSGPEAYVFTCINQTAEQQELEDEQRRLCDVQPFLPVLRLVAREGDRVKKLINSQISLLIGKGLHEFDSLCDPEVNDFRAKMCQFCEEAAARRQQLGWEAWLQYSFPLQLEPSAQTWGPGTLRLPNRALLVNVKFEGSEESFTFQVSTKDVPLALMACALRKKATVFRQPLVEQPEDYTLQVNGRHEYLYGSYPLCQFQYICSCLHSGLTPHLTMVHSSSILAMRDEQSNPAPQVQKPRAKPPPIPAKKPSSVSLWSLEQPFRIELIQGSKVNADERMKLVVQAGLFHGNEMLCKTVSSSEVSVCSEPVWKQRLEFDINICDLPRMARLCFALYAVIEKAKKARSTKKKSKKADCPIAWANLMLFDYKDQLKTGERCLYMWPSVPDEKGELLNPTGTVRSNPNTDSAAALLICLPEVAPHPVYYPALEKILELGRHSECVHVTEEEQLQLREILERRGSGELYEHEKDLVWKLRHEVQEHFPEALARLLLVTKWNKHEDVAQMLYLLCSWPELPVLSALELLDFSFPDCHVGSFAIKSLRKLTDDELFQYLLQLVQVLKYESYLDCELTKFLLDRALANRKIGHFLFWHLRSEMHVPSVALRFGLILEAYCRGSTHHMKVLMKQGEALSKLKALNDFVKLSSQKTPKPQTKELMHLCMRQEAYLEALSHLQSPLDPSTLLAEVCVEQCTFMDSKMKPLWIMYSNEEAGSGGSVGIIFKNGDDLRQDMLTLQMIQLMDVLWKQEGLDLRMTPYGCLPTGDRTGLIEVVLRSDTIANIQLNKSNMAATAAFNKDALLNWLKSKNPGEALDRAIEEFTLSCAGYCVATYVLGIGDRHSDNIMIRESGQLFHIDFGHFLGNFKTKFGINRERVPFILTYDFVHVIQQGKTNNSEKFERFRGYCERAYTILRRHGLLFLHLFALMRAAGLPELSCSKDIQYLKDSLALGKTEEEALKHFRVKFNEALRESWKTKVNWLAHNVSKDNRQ
PI3 kinase isoform δ, sequence (P27986 whole entry partner, the tested form may be a part, canonical isoform): as the sequence (P27986 whole entry partner) above

Take `Nc1ncc(-c2nc(N3CCOCC3)c3ncc(-c4cccc(NC(=O)C5CC5)c4)cc3n2)cn1` [Example 7, N-(3-(2-(2-Aminopyrimidin-5-yl)-4-morpholinopyrido[3,2-d]pyrimidin-7-yl)-phenyl)cyclopropanecarboxamide]: the half-inhibitory concentration (IC50) was under 1000 nM in assay [1] and under 50 nM in assay [2].

As to `CC(=O)Nc1cccc(-c2cnc3c(N4CCOCC4)nc(-c4cnc(N)nc4)nc3c2)c1` [Example 3, N-(3-(2-(2-Aminopyrimidin-5-yl)-4-morpholinopyrido[3,2-d]pyrimidin-7-yl)-phenyl)acetamide], the IC50 was under 1000 nM in assay [1] and under 50 nM in assay [2]. Besides, the “suppression of pS6RP” value in assay [3] is recorded as “suppression”.

In the case of `N#CC1(C(=O)Nc2cccc(-c3cnc4c(N5CCOCC5)nc(-c5cnc(N)nc5)nc4c3)c2)CC1` [Example 61, N-(3-(2-(2-amino-pyrimidin-5-yl)-4-morpholinopyrido[3,2-d]pyrimidin-7-yl)phenyl)-1-cyanocyclopropane-carboxamide], the “suppression of pS6RP” value in assay [3] is “suppression”.

Broadly, the IC50 is the concentration that gives 50% inhibition.
